Test results taken from patent US8178534B2, “cMET inhibitors” (Takeda Pharmaceutical Company Limited, priority 2008, dated 2012).
Where a name gives a salt, the structure may show the parent alone.

What was measured:
MKN45 = experiment: Inhibition of cell viability (MTS), MKN45; type: cell-based; conditions: MKN45 cells, 96 hours incubation
Procedure: (§1) Cells were maintained at 37° C. in a humidified atmosphere containing 5%-8% CO2 following the instructions of the supplier (American Type Culture Collection (Rockville, Md.)). Inhibition of cell viability was determined for a panel of tumor cell lines (MKN45, EBC1 and A549), using the soluble tetrazolium salt, MTS (Promega, Madison, Wis.). Cells were seeded at 2,000-7,500 cells/well in 96-well tissue culture plates and were allowed to attach for approximately 24 hours prior to addition of compounds or DMSO vehicle. […] Cells were treated in duplicate with test compounds. Compounds were serially diluted (1:2.5) from column 1 to 11 and column 12 contained DMSO vehicle. Compounds were diluted into cell growth medium then compound solution was added to cells. Equal amounts of DMSO were added to cells (final concentration is 0.5%). After background correction and normalization against DMSO-treated cells, EC50 values were calculated using non-linear curve-fitting of the cell viability as a function of compound concentration. The MKN45 and EBC1 cell lines contain high levels of phospho-Met and are dependent on cMET for proliferation, whereas the A549 line is used as negative control.
(§2) EC50 values may be calculated by non-linear curve fitting of the compound concentrations and fluorescence intensities to the standard EC50 equation.

[1] = target: T1, cMET enzyme (amino acids 1023-1360) (Homo sapiens, UniProt P08581); experiment: Determination of inhibition of cMET (capillary electrophoresis, phosphorylated peptide product); type: biochemical; conditions: 1.2 nM cMET, 50 μM ATP, 2 μM FL-2 peptide, 2 hours room temperature
T1 construct: The cMET enzyme (amino acids 1023-1360) nominally at 24 μM was held at −80° C. until use; His tag (N, cleaved yes); made in house; host or cells: Sf9 cells
Procedure: The inhibitory property of a compound relative to cMET catalysis was determined by use of capillary electrophoresis with fluorescence quantification of a phosphorylated peptide product for cMET. The cMET enzyme (amino acids 1023-1360) nominally at 24 μM was held at −80° C. until use, in a buffer containing 25 mM Tris-HCl pH 8.5, 150 mM NaCl, 3 mM DTT and 10% glycerol. […] Following purification, the tag was removed and enzyme concentrated. […] To activate the enzyme fully, frozen cMET was thawed quickly and activated with the addition of assay buffer (50 mM HEPES pH 7.5, 10 mM NaCl, 10 mM MgCl2, 0.01% Brij® 35), 1.25 mM ATP, 5 mM MgCl2 and 5 mM DTT at a cMET concentration of 2.4 μM followed by a 30 minute incubation at room temperature. […] Next, cMET enzyme (1.2 nM final) was added and the system incubated at room temperature for 20 minutes. Catalysis was initiated by the addition of ATP (50 μM final). Assays were incubated at room temperature for 2 hours then quenched by the addition of EDTA. Phosphorylated peptide product was quantified by monitoring fluorescence during capillary electrophoresis with Caliper LifeSciences LabChip 3000 under the following settings: base pressure=−0.1 psi, screen pressure=−1.2 psi, downstream voltage=−500 V, upstream voltage=−2300 V, chip type=TC372. The elution buffer was identical to the assay buffer except for the absence of DTT, FL-2 and ATP and the addition of 0.1% coating reagent (Caliper). […] Peak height was quantified and used to determine enzyme velocities.
IC50 values were calculated by non-linear least squares curve fitting of the standard IC50 equation to background-corrected cMET velocity versus compound concentration.

EBC1 = experiment: Inhibition of cell viability (MTS), EBC1; type: cell-based; conditions: EBC1 cells, 96 hours incubation
Procedure: as §1, §2

A549 = experiment: Inhibition of cell viability (MTS), A549 (negative control line); type: cell-based; conditions: A549 cells (negative control), 96 hours incubation
Procedure: as §1, §2

T1 sequence (P08581 1023-1360): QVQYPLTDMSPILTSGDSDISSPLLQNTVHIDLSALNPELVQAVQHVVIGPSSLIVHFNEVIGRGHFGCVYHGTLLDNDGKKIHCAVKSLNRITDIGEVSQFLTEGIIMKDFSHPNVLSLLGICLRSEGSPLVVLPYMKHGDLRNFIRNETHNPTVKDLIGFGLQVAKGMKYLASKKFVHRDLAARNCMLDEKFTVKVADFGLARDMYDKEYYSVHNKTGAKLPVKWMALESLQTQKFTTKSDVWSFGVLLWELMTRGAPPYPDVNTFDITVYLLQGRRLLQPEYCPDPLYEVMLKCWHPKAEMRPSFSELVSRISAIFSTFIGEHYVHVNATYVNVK

Structure (SMILES)	EC50 (MKN45) [nM]	IC50 [1] [nM]	EC50 (EBC1; Homo sapiens, EBC-1, 96 h) [nM]	EC50 (A549; Homo sapiens, A549, 96 h) [nM]	EC50 (EBC1) [nM]	EC50 (A549) [nM]	EC50 (MKN45; Homo sapiens, MKN-45, 96 h) [nM]
O=C(Nc1cn2nc(Sc3nnc4ccccn34)ccc2n1)C1CC1 [3 (HCl Salt)]	250 to 630	> 100	100 to 199	8000 to 25000	–	–	–
O=C(Nc1cn2nc(Sc3nnc4ccccn34)ccc2n1)C1CC1 [3 (TFA Salt), N-(6-([1,2,4]triazolo[4,3-a]pyridin-3-ylthio)imidazo[1,2-b]pyridazin-2-yl)cyclopropanecarboxamide]	250 to 630	> 100	–	–	100 to 199	8000 to 25000	–
O=C(Nc1cn2nc(Sc3nnc4ccccn34)ccc2n1)C1CC1 [3 (free base), N-(6-([1,2,4]Triazolo[4,3-a]pyridin-3-ylthio)imidazo[1,2-b]pyridazin-2-yl)cyclopropanecarboxamide]	100 to 199	> 100	–	–	60 to 100	8000 to 25000	–
Cn1cc(-c2ccc3nnn(Cc4ccc5nc(NC(=O)C6CC6)cn5n4)c3c2)cn1 [13 (HCl Salt), N-(6-((6-(1-methyl-1H-pyrazol-4-yl)-1H-benzo[d][1,2,3]triazol-1-yl)methyl)imidazo[1,2-b]pyridazin-2-yl)cyclopropanecarboxamide]	100 to 249	30 to 59	< 35	–	–	8000 to 25000	–
Cn1cc(-c2ccc3nnn(Cc4ccc5nc(NC(=O)C6CC6)cn5n4)c3c2)cn1 [13 (TFA Salt), Cyclopropanecarboxylic acid {6-[6-(1-methyl-1H-pyrazol-4-yl)-benzotriazol-1-ylmethyl]-imidazo[1,2-b]pyridazin-2-yl}-amide]	60 to 100	30 to 59	–	–	< 30	5000 to 8000	–
Cn1cc(-c2ccc3nnc(C(F)(F)c4ccc5nc(NC(=O)C6CC6)cn5n4)n3c2)cn1 [45 (HCl Salt), N-(6-(Difluoro(6-(1-methyl-1H-pyrazol-4-yl)-[1,2,4]triazolo[4,3-a]pyridin-3-yl)methyl)imidazo[1,2-b]pyridazin-2-yl)cyclopropanecarboxamide hydrochloride]	–	< 30	< 30	> 50000	–	–	< 30
Cn1cc(-c2ccc3nnc(C(F)(F)c4ccc5nc(NC(=O)C6CC6)cn5n4)n3c2)cn1 [45 (TFA Salt), N-(6-(difluoro(6-(1-methyl-1H-pyrazol-4-yl)-[1,2,4]triazolo[4,3-a]pyridin-3-yl)methyl)imidazo[1,2-b]pyridazin-2-yl)cyclopropanecarboxamide]	–	30 to 59	–	–	–	–	–
CC(c1ccc2nc(NC(=O)C3CC3)cn2n1)c1nnc2ccc(-c3cnn(C)c3)cn12 (stereo not shown) [49 (HCl Salt), N-(6-(1-(6-(1-methyl-1H-pyrazol-4-yl)-[1,2,4]triazolo[4,3-a]pyridin-3-yl)ethyl)imidazo[1,2-b]pyridazin-2-yl)cyclopropanecarboxamide]	–	< 30	< 30	–	–	8000 to 25000	30 to 59
CC(c1ccc2nc(NC(=O)C3CC3)cn2n1)c1nnc2ccc(-c3cnn(C)c3)cn12 (stereo not shown) [49 (TFA Salt), N-(6-(1-(6-(1-methyl-1H-pyrazol-4-yl)-[1,2,4]triazolo[4,3-a]pyridin-3-yl)ethyl)imidazo[1,2-b]pyridazin-2-yl)cyclopropanecarboxamide]	60 to 100	30 to 59	–	–	60 to 100	> 50000	–
CC(c1ccc2nc(NC(=O)C3CC3)cn2n1)c1nnc2ccc(-c3cnn(C)c3)cn12 (stereo not shown) [49 (free base), N-(6-(1-(6-(1-methyl-1H-pyrazol-4-yl)-[1,2,4]triazolo[4,3-a]pyridin-3-yl)ethyl)imidazo[1,2-b]pyridazin-2-yl)cyclopropanecarboxamide]	60 to 100	< 30	–	–	< 30	> 50000	–
O=C(Nc1cn2cc(Cn3nnc4cccnc43)ccc2n1)C(F)(F)F [Compound 1, N-(6-((3H-[1,2,3]triazolo[4,5-b]pyridin-3-yl)methyl)imidazo[1,2-a]pyridin-2-yl)-2,2,2-trifluoroacetamide]	–	> 100	–	–	–	–	–
O=C(Nc1cn2cc(Cn3nnc4ncccc43)ccc2n1)C(F)(F)F [Compound 2, N-(6-((1H-[1,2,3]triazolo[4,5-b]pyridin-1-yl)methyl)imidazo-[1,2-a]pyridin-2-yl)-2,2,2-trifluoroacetamide]	–	> 100	–	–	–	–	–
O=C(Nc1cn2nc(Sc3nnc4ccc(Br)cn34)ccc2n1)C1CC1 [Compound 4, N-(6-(6-bromo-[1,2,4]triazolo[4,3-a]pyridin-3-ylthio)imidazo[1,2-b]pyridazin-2-yl)cyclopropanecarboxamide]	–	30 to 59	< 35	> 50000	–	–	100 to 249
Cn1cc(-c2ccc3nnc(Sc4ccc5nc(NC(=O)C6CC6)cn5n4)n3c2)cn1 [Compound 5, N-(6-(6-(1-methyl-1H-pyrazol-4-yl)-[1,2,4]triazolo[4,3-a]pyridin-3-ylthio)-imidazo[1,2-b]pyridazin-2-yl)cyclopropanecarboxamide]	–	< 30	< 35	> 50000	–	–	< 100
Cc1ccn2c(Sc3ccc4nc(NC(=O)C5CC5)cn4n3)nnc2c1 [Compound 43, N-(6-(7-methyl-[1,2,4]triazolo[4,3-a]pyridin-3-ylthio)imidazo[1,2-b]pyridazin-2-yl)cyclopropanecarboxamide]	–	> 100	–	–	–	–	–
NC(=O)c1ccc(-c2ccc3nnc(C(F)(F)c4ccc5nc(NC(=O)C6CC6)cn5n4)n3c2)cc1 [Compound 89, 4-(3-((2-(cyclopropanecarboxamido)imidazo[1,2-b]pyridazin-6-yl)difluoromethyl)-[1,2,4]triazolo[4,3-a]pyridin-6-yl)benzamide]	–	< 30	–	–	–	–	–
Cc1ccncc1-c1ccc2nnc(C(F)(F)c3ccc4nc(NC(=O)C5CC5)cn4n3)n2c1 [Compound 94, N-(6-(difluoro(6-(4-methylpyridin-3-yl)-[1,2,4]triazolo[4,3-a]pyridin-3-yl)methyl)imidazo[1,2-b]pyridazin-2-yl)cyclopropanecarboxamide]	–	250 to 630	–	–	–	–	–
CNC(=O)c1ccc(-c2ccc3nnc(C(F)(F)c4ccc5nc(NC(=O)C6CC6)cn5n4)n3c2)cc1 [Compound 95, 4-(3-((2-(cyclopropanecarboxamido)imidazo[1,2-b]pyridazin-6-yl)difluoromethyl)-[1,2,4]triazolo[4,3-a]pyridin-6-yl)-N-methylbenzamide]	–	< 30	–	–	–	–	–
Cn1cc(-c2ccc3nnc(Sc4ccc5nc(NC(=O)C6CC6)cn5n4)n3c2)ccc1=O [Compound 105, N-(6-(6-(1-methyl-6-oxo-1,6-dihydropyridin-3-yl)-[1,2,4]triazolo[4,3-a]pyridin-3-ylthio)imidazo[1,2-b]pyridazin-2-yl)cyclopropanecarboxamide]	–	< 30	–	–	–	–	–
CCn1cc(-c2ccc3nnc(Sc4ccc5nc(NC(=O)C6CC6)cn5n4)n3c2)ccc1=O [Compound 106, N-(6-(6-(1-ethyl-6-oxo-1,6-dihydropyridin-3-yl)-[1,2,4]triazolo[4,3-a]pyridin-3-ylthio)imidazo[1,2-b]pyridazin-2-yl)cyclopropanecarboxamide]	–	< 30	–	–	–	–	–
COCCOCc1ccc2nnc(Sc3ccc4nc(NC(=O)C5CC5)cn4n3)n2c1 [Compound 112, N-(6-(6-((2-methoxyethoxy)methyl)-[1,2,4]triazolo[4,3-a]pyridin-3-ylthio)imidazo[1,2-b]pyridazin-2-yl)cyclopropanecarboxamide]	–	100 to 249	–	–	–	–	–
Cc1c(F)ccc2nnc(Sc3ccc4nc(NC(=O)C5CC5)cn4n3)n12 [Compound 113, N-(6-(6-fluoro-5-methyl-[1,2,4]triazolo[4,3-a]pyridin-3-ylthio)imidazo[1,2-b]pyridazin-2-yl)cyclopropanecarboxamide]	–	250 to 630	–	–	–	–	–
